Source: the supplement of paper PMC10307832

Key:
Experiment in all cases: relative viability (nuclei count vs DMSO), 5 days (fraction); higher = more cells survive
Crizotinib + Lapatinib = compound: C[C@@H](Oc1cc(-c2cnn(C3CCNCC3)c2)cnc1N)c1c(Cl)ccc(F)c1Cl [Crizotinib] + CS(=O)(=O)CCNCc1ccc(-c2ccc3ncnc(Nc4ccc(OCc5cccc(F)c5)c(Cl)c4)c3c2)o1 [Lapatinib] (partner 2 µM)
In short: (§1)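 Relative viability equals treated-well nuclei counts divided by vehicle-well nuclei counts. Counts came from 4× images of lung cancer cell lines grown in 1536-well plates for 5 days after pin-tool dosing on the day after seeding. Dosing used one drug alone or a fixed anchor-drug dose plus five library-drug doses (not always all listed) in √10 steps, and values are medians of duplicate plates.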

Carfilzomib + Bortezomib = compound: CC(C)C[C@H](NC(=O)[C@H](CCc1ccccc1)NC(=O)CN1CCOCC1)C(=O)N[C@@H](Cc1ccccc1)C(=O)N[C@@H](CC(C)C)C(=O)[C@@]1(C)CO1 [Carfilzomib] + CC(C)C[C@H](NC(=O)[C@H](Cc1ccccc1)NC(=O)c1cnccn1)B(O)O [Bortezomib] (partner 0.002 µM)
In short: as §1

Olaparib + Foretinib = compound: O=C(c1cc(Cc2n[nH]c(=O)c3ccccc23)ccc1F)N1CCN(C(=O)C2CC2)CC1 [Olaparib] + COc1cc2c(Oc3ccc(NC(=O)C4(C(=O)Nc5ccc(F)cc5)CC4)cc3F)ccnc2cc1OCCCN1CCOCC1 [Foretinib] (partner 0.25 µM)
In short: as §1

Olaparib + Lapatinib = compound: O=C(c1cc(Cc2n[nH]c(=O)c3ccccc23)ccc1F)N1CCN(C(=O)C2CC2)CC1 [Olaparib] + CS(=O)(=O)CCNCc1ccc(-c2ccc3ncnc(Nc4ccc(OCc5cccc(F)c5)c(Cl)c4)c3c2)o1 [Lapatinib] (partner 2 µM)
In short: as §1

| Cell Line | relative viability (Crizotinib + Lapatinib; first compound 0.01 µM) | relative viability (Crizotinib + Lapatinib; first compound 0.03162 µM) | relative viability (Crizotinib + Lapatinib; first compound 0.1 µM) | relative viability (Crizotinib + Lapatinib; first compound 0.3162 µM) | relative viability (Crizotinib + Lapatinib; first compound 1 µM) | relative viability (Carfilzomib + Bortezomib; first compound 0.001 µM) | relative viability (Carfilzomib + Bortezomib; first compound 0.003162 µM) | relative viability (Carfilzomib + Bortezomib; first compound 0.01 µM) | relative viability (Carfilzomib + Bortezomib; first compound 0.03162 µM) | relative viability (Carfilzomib + Bortezomib; first compound 0.1 µM) | relative viability (Olaparib + Foretinib; first compound 0.08 µM) | relative viability (Olaparib + Foretinib; first compound 0.253 µM) | relative viability (Olaparib + Foretinib; first compound 2.53 µM) | relative viability (Olaparib + Foretinib; first compound 8 µM) | relative viability (Olaparib + Lapatinib; first compound 0.08 µM) | relative viability (Olaparib + Lapatinib; first compound 0.253 µM) | relative viability (Olaparib + Lapatinib; first compound 2.53 µM) | relative viability (Olaparib + Lapatinib; first compound 8 µM) |
| --- | --- | --- | --- | --- | --- | --- | --- | --- | --- | --- | --- | --- | --- | --- | --- | --- | --- | --- |
| Calu-6 | 1.07 | 1.1 | 1.07 | 1.05 | 0.991 | 0.886 | 0.713 | 0.299 | 0.119 | 0.106 | 0.892 | 0.789 | 0.855 | 0.536 | 1.23 | 0.995 | 0.893 | 0.724 |
| ChaGo-K-1 | – | – | – | – | – | – | 1.25 | 0.851 | 0.501 | 0.381 | 0.872 | 0.868 | 0.763 | 0.608 | – | – | – | – |
| EBC-1 | 0.213 | 0.223 | 0.197 | 0.206 | 0.205 | 0.524 | 0.317 | 0.149 | 0.119 | 0.168 | 0.116 | 0.094 | 0.1 | 0.107 | 0.247 | 0.235 | 0.236 | 0.201 |
| EKVX | 0.218 | 0.191 | 0.175 | 0.186 | 0.186 | 1.03 | 1.08 | 1.14 | 0.285 | 0.345 | 1.03 | 1 | 0.294 | 1.01 | 0.228 | 0.162 | 0.209 | 0.213 |
| EMC-BAC-2 | 0.852 | 0.897 | 0.911 | 0.749 | 0.887 | 1.03 | 1.06 | 1.07 | 0.66 | 0.448 | 1.05 | 0.998 | 0.953 | 0.655 | 0.921 | 0.88 | 0.852 | 0.758 |
| EPLC-272H | 0.861 | 0.996 | 0.945 | 0.9 | 1.11 | 0.738 | 0.626 | 0.655 | 0.105 | 0.0698 | 0.764 | 0.582 | 0.729 | 0.64 | 1.16 | 0.848 | 1.08 | 1.01 |
| H3255 | 0.254 | 0.267 | 0.234 | 0.238 | 0.219 | 0.765 | 0.769 | 0.841 | 0.315 | 0.179 | 0.942 | 0.792 | 0.901 | 0.872 | 0.229 | 0.245 | 0.256 | 0.219 |
| HARA | 0.662 | 0.699 | 0.636 | 0.824 | 0.667 | 1.2 | 1.05 | 0.394 | 0.0539 | 0.0619 | 0.97 | 0.807 | 0.951 | 0.695 | 0.836 | 0.725 | 0.699 | 0.763 |
